Target: T1, EGFR (ErbB1) T790M L858R (Homo sapiens, UniProt P00533, L858R/T790M)
T1 construct: purchased Thermo Fisher Scientific (Life Technologies) SelectScreen
Experiment: SelectScreen Z'LYTE
Type: biochemical
Method in brief: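 Compound tested in SelectScreen activity assays, Z'LYTE for CSF1R, CDK1/cyclin B and MAP2K6 and Adapta for CAMK1. ATP for CAMK1 was listed as 10, and Km app was used for CSF1R. Results are expressed in percent.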

T1 sequence (P00533 25-1210 T790M/L858R): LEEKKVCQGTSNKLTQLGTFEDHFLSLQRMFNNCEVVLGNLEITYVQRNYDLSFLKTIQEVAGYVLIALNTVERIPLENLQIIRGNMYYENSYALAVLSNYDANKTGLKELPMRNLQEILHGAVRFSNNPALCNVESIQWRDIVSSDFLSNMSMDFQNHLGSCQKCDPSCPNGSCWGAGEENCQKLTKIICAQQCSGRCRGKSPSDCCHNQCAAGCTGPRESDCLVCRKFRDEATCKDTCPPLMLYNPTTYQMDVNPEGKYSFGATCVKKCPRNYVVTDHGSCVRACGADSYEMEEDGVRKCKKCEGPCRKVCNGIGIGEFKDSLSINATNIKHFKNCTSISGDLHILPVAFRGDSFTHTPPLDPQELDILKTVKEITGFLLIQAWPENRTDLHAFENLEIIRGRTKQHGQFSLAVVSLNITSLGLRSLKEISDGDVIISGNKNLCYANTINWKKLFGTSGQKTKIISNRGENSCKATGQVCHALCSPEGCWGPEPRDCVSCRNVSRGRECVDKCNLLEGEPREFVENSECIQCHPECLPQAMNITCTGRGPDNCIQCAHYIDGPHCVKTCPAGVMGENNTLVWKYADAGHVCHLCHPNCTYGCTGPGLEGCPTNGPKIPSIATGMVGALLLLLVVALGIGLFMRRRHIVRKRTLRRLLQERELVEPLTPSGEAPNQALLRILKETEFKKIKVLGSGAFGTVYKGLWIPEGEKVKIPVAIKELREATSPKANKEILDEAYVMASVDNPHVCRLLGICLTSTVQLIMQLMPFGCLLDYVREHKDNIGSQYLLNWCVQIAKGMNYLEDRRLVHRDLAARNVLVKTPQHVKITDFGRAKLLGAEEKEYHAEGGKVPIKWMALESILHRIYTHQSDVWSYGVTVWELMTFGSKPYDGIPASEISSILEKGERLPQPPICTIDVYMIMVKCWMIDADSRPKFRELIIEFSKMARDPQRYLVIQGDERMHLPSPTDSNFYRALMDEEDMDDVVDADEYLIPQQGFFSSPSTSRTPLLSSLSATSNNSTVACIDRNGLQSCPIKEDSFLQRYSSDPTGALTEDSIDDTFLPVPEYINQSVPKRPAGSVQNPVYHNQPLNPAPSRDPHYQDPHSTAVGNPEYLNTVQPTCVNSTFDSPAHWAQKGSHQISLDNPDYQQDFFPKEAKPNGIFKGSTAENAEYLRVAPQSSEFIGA

CN(C(=O)CN1CCOCC1)c1ccc2sc3c(-c4cccc5c(=O)cc(N6CC7CCC(C6)O7)oc45)cccc3c2c1 [NU5455]
inhibition at 1 µM: -14.1%

— paper PMC6934184, “Selective DNA-PKcs inhibition extends the therapeutic index of localized radiotherapy and chemotherapy” (The Journal of Clinical Investigation, 2019)
